# Measurements from publication PMC7887271, “Fast acting allosteric phosphofructokinase inhibitors block trypanosome glycolysis and cure acute African trypanosomiasis in mice” (Nature Communications, 2021).
# Several values for one entry are separate records, joined by “and”; a condition that tells them apart may be missing. Equal entries are not always repeated. Where two headings read alike, the source gives them in different places.
# Columns and labels:
# [1] = target: T1, CYP2C9 (Homo sapiens, UniProt P11712); test: Inhibition of CYP450 2C9; assay type: in vitro ADME; details: CYP450 isoform inhibition kit (BD Biosciences), probe MFC
# T1 construct: purchased BD Biosciences
# Description: A HepG2 cytotoxicity assay was used to determine a cellular selectivity index. HepG2 cells were seeded into 96-well plates in EMEM medium. Compounds were assessed for their effect upon cellular viability (Supplementary Methods 5.1). Inhibition of CYP450 was determined using kits from BD Biosciences (Supplementary Methods 5.2). Metabolic stability was determined using mouse […] tested at a single concentration of 5 µM. Plasma protein binding was determined using mouse and human plasma at a single concentration of 10 µM (Supplementary Methods 5.4). All PK studies in mice were carried out by Pharmidex (Supplementary Methods 6.1).
# The compounds were investigated for their inhibitory effect on cytochrome P450 (CYP450) activity using five CYP450 isoforms (with fluorescent substrates in brackets): 3A4 (two substrates, BFC and DBF), 2D6 (AMMC), 2C9 (MFC), 2C19 (CEC) and 1A2 (CEC). Kits from BD Biosciences were used along with the method described by the manufacturer. […] Fluorescence was measured using a SpectraMax M5 plate reader.
# [2] = target: T2, T. brucei phosphofructokinase (TbPFK) (Trypanosoma brucei brucei, UniProt O15648); test: ADP-Glo assay for measuring PFK inhibition; assay type: biochemical; details: for RLU, avg / RLU, individual replicates: SuppFig1
# T2 construct: made in house; host or cells: Escherichia coli C41 (pET28a, codon optimised gene)
# T2 sequence (O15648 1-487): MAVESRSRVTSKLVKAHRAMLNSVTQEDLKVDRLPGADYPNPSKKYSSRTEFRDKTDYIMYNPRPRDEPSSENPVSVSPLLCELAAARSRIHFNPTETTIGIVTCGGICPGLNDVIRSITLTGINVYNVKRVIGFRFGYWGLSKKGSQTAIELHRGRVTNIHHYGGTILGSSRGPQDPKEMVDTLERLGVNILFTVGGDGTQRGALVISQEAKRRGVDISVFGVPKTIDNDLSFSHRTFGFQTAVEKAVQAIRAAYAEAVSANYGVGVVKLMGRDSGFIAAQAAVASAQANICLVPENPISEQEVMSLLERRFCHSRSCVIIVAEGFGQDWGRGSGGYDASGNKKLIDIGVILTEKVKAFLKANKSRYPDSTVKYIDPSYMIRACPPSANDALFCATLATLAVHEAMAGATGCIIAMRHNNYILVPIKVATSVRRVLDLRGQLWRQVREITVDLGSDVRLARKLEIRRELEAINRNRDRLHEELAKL
# Description: Parasite enzyme kinetic data were measured using N-terminally His6-tagged TbPFK expressed in Escherichia coli C41 cells, using a codon optimised gene inserted in a pET28a vector (Supplementary Methods 1). Recombinant human PFKs were expressed in PFK-deficient Saccharomyces cerevisiae. PFK enzyme inhibition was measured using an ADP-Glo^TM assay (Promega) in a 96-well plate format (Supplementary Methods 2.1), using a Spectramax© M5 Multimode Plate Reader to measure luminescence values which were converted to ADP concentrations. IC50 values were determined using a sigmoidal curve fitting algorithm in Kaleidagraph 4 (Supplementary Fig. 1). Mode of action studies were carried out using a linked enzyme assay coupling the forward reaction of TbPFK to the M1 isoform of human pyruvate kinase followed by lactate dehydrogenase. The change in UV absorbance at 340 nm resulting from the conversion of NADH to NAD^+ was measured at 25 °C in ‘kinetic mode’ on a Spectramax© M5 Multimode plate reader. Initial velocities were plotted against substrate concentration to give curves showing non-competitive inhibition (Supplementary Fig. 2). An alternative linked enzyme assay was developed to control for the potential inhibitory activity of ATP on human PFK (Supplementary Methods 2.3).
# The ADP-Glo™ end-point assay kit manufactured by Promega (cat. No. V9102) was used to measure ADP produced in the phosphofructokinase reaction:
# Following this kinase reaction, the addition of a reagent results in any unused background ATP being removed and the reaction is sequestered. A second reagent is then added to convert the remaining ADP to ATP which is coupled to the luciferase/luciferin reaction to produce light. ‘Ultrapure’ ATP and ADP from Promega were used to reduce background noise. All reagents additional to those provided in the Promega ADP-Glo™ kit were purchased from Sigma-Aldrich.
# The assay buffer comprised 50 mM triethanolamine (TEA), 10 mM MgCl2, 5 mM KCl, 0.1% w/v bovine serum albumin (BSA), 0.005% Tween-20, 1% DMSO, pH 7.4. A 3-fold serial dilution of 250x inhibitor stocks was carried out in 100% DMSO. 2 µl of these dilutions was added to 198 µl assay buffer and mixed well using a multichannel pipette. […] Concentration ranges of inhibitor compounds were 40 - 0.006 µM (final concentration, 1% DMSO). The PFK reaction in the presence of inhibitor was carried out using 10 µl of 1 µg/ml PFK (final concentration 0.4 µg/ml) which was added to 10 µl of the 1% DMSO inhibitor compound serial dilutions in a white, non-binding 96-well plate (Greiner BioOne 655904). CTCB-001 was used as a positive control at a final concentration of 5 µM. Assay buffer containing 1% DMSO was added instead of inhibitor compound for the negative control. The protein/inhibitor mixture was incubated for 10 minutes at room temperature (RT). The kinase reaction was started by adding a 5x ATP/F6P stock in assay buffer (final concentrations 0.5 mM F6P and 0.1 mM ATP). Plates were then sealed, centrifuged at 560 x g for 30 seconds and incubated at RT for 30 minutes. 25 µl of ‘ADP-Glo™ Reagent’ was then added to each well, mixed using a multichannel pipette and incubated at room temperature for 40 minutes. 50 µl of ‘Kinase Detection Reagent’ was added and incubated for 50 minutes at RT. The luminescence was recorded using a Spectramax© M5 Multi-mode Plate Reader (Molecular Devices) in single-point mode, with an integration time of 750 milliseconds. The luminescence values were converted to ADP concentration using a standard calibration curve for ADP. The resulting ADP concentrations were plotted as a function of inhibitor compound concentration using Kaleidagraph 4.0 software. The data were analysed using non-linear regression and a sigmoidal curve was fitted (Supplementary Figure 1) to determine the IC50. Kaleidagraph 4.0 uses the Levenberg-Marquardt algorithm in an iterative procedure to fit non-linear curves. […] The slope of the curve at the midpoint (m4) was set to 1.
# [3] = source data for Fig. 2 and Table 1, read-out: Average IC50
# [4] = source data, read-out: IC50 (µM), single dated measurement
# [5] = ADP-Glo, mean ± SD, read-out: IC50 (µM) for inhibition of T. brucei phosphofructokinase (PFK IC50)
# T1 sequence (P11712 whole entry, canonical isoform): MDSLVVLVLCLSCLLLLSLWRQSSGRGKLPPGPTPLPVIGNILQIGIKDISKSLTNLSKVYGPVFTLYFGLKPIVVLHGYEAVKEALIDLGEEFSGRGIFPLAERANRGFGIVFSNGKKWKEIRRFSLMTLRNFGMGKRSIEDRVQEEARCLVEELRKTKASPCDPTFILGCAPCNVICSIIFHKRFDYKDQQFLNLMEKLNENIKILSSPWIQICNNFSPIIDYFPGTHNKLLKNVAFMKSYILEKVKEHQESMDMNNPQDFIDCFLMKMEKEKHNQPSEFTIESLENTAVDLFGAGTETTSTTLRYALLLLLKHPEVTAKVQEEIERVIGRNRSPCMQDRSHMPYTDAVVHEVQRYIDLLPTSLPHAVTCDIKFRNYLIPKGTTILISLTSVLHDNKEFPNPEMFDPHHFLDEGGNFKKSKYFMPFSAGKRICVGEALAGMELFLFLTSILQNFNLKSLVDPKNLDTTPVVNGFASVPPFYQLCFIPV
smiles,measurement,setting,value
"CN(C)CCn1ccc2c(ccn2Cc2ccc(Cl)c(Br)c2)c1=O [CTCB-470, 1-[(3-Bromo-4-chlorophenyl)methyl]-5-[2-(dimethylamino)ethyl] pyrrolo[3,2-c]pyridin-4-one]",inhibition at 10 µM,[1],28.5%
same,IC50,[2]; [3],0.21 µM
same,IC50,[2]; [4],0.137 µM and 0.154 µM and 0.209 µM and 0.359 µM
CNCCn1ccc2c(ccn2Cc2ccc(Cl)c(Cl)c2)c1=O [CTCB-435],IC50,[2]; [3],0.12 µM
same,IC50,[2]; [4],0.111 µM and 0.127 µM
"CN(C)CCn1ccc2c(ccn2Cc2ccc(Cl)c(Cl)c2)c1=O [CTCB-405, 1-[(3,4-Dichlorophenyl)methyl]-5-[2-(dimethylamino)ethyl] pyrrolo[3,2-c]pyridin-4-one]",inhibition at 10 µM,[1],11%
same,IC50,[2]; [5],0.18 ± 0.03 µM
same,IC50,[2]; [4],0.209 µM and 0.202 µM and 0.134 µM and 0.19 µM
"CN(C)CCn1ccc2c(ccn2Cc2ccc(F)c(Br)c2)c1=O [CTCB-508, 1-[(3-Bromo-4-fluorophenyl)methyl]-5-[2-(dimethylamino)ethyl] pyrrolo[3,2-c]pyridin-4-one]",inhibition at 10 µM,[1],6.1%
same,IC50,[2]; [5],0.2 ± 0.05 µM
same,IC50,[2]; [4],0.13 µM and 0.229 µM and 0.25 µM
CN(C)CCn1ccc2c(ccn2Cc2ccc(Cl)c(Cl)c2)c1=O [CTCB 405],"RLU, avg",[2]; Conc 0.00640146 uM,39926.3 RLU
same,"RLU, individual replicates",[2]; Conc 0.00640146 uM,40029.2 RLU and 39823.3 RLU
same,"RLU, avg",[2]; Conc 0.0192044 uM,39977.3 RLU
same,"RLU, individual replicates",[2]; Conc 0.0192044 uM,42153.7 RLU and 37800.9 RLU
same,"RLU, avg",[2]; Conc 0.0576132 uM,34288.1 RLU
same,"RLU, individual replicates",[2]; Conc 0.0576132 uM,36858 RLU and 31718.2 RLU
same,"RLU, avg",[2]; Conc 0.17284 uM,23285 RLU
same,"RLU, individual replicates",[2]; Conc 0.17284 uM,25069.7 RLU and 21500.2 RLU
same,"RLU, avg",[2]; Conc 0.518519 uM,10488.4 RLU
same,"RLU, individual replicates",[2]; Conc 0.518519 uM,11745.9 RLU and 9230.85 RLU
same,"RLU, avg",[2]; Conc 1.55556 uM,4498.05 RLU
same,"RLU, individual replicates",[2]; Conc 1.55556 uM,4537.49 RLU and 4458.6 RLU
same,"RLU, avg",[2]; Conc 4.66667 uM,2709.41 RLU
same,"RLU, individual replicates",[2]; Conc 4.66667 uM,2899.92 RLU and 2518.91 RLU
same,"RLU, avg",[2]; Conc 14 uM,1717.44 RLU
same,"RLU, individual replicates",[2]; Conc 14 uM,1947.39 RLU and 1487.48 RLU
